Here are results for three molecules from US9808444B2 (BioHealthonomics Inc., priority 2012, dated 2017).

The subject of data set [1] is migraine attacks. The following applies: cited from earlier work.
Another data set concerns migraine headaches. The note with it: one subject, subcutaneous, Table 5 regimen.
Data set [2] relates to headache / migraine attack. The following applies: cited from earlier work.
For data set [3], the system named is migraine attacks. The following applies: subcutaneous, twice weekly, 1 μg (0.1 mL) increasing to 10 μg (1.0 mL) over 12 weeks; cited from earlier work.
Data set [4] deals with migraine attacks. The note with it: subcutaneous 1-10 ng twice a week vs oral sodium valproate 500 mg daily, cited from earlier work.
[5] abbreviates: doses of 1 to 3 ng twice a week, P<0.0001.
Setting [6] is: migraine subjects, intravenous, 0.5 mg/kg per minute for 20 min.

With `CNCCc1c[nH]cn1` [N^α-methylhistamine], in the data set with migraine attacks [1] (doses greater than 3 ng), the adverse side effects result was “intense headache”. In the data set with migraine attacks [1] (setting [5]), the “duration of migraine attacks” value is given as “significantly reduced”, the “frequency of migraine attacks” value was “significantly reduced”, the “intensity of migraine attacks” value is listed as “significantly reduced” and the “need for rescue analgesics” value is on record as “significantly reduced”.
Consider `NCCc1c[nH]cn1` [histamine, 2-(1H-imidazol-4-yl)ethanamine], for which, in the data set with migraine headaches, the intensity of migraines result is given as “drastically reduced”, the quality of life result is recorded as “Drastically improved” and the “side effects associated with the regimen” value is on record as “no histamine-induced headaches”. Moreover, in the data set on migraine headaches (before the regimen about 3-5 migraines per week), the “frequency of migraines after the dosing regimen” value is around 1 migraine every 2 months. Moreover, in data set [2] (setting [6]), the “side effect after the infusion” value is on record as “delayed migraine attack” and the “side effect during the infusion” value is “immediate headache”. In addition, in the data set with migraine attacks [3], the “decrease in length of migraine attacks” value was 45%, the “decrease in pain intensity” value is reported as 51%, the “decrease in painkiller use” value was 52% and the “reduction of headache frequency” value is on record as 50%. Also, in the data set on migraine attacks [4], the “MIDAS versus sodium valproate” value was “No difference” and the “frequency of attacks versus sodium valproate” value is on record as “No difference”. Further, in the data set on migraine attacks [4] (weeks 4, 8, 12, P<0.001), the “analgesic intake versus sodium valproate” value is recorded as “significantly greater reduction” and the “intensity of migraine attacks versus sodium valproate” value is reported as “significantly greater reduction”.
For the molecule `COc1ccc(CN(CCN(C)C)c2ccccn2)cc1` [mepyramine], the “effect of pre-treatment on histamine-induced headache and delayed migraine attack” value in data set [2] (pre-treatment before intravenous histamine in migraine subjects) is recorded as “abolished”.
